Test results from US5340829A, “Immunoregulatory agents” (priority 1992, dated 1994).

Columns and labels:
DTH reaction in ears = assay: Histologic examination of DNFB-challenged ear tissue (Experiment 5); assay type: in vivo, mice
Procedure: FIG. 16 depicts the ear of a primed mouse which has not been challenged with DNFB. The epidermis 22 is devoid of mononuclear infiltrate 28, as is the dermal compartment 24. A layer of cartilage 26 is located in the center of the ear. FIG. 17 represents the ear of a buffer-treated primed mouse which had been challenged 24 hours previously with DNFB. Note the pronounced edema in the dermal compartment of the skin 24 as well as the extensive mononuclear cell infiltrate (indicated by arrows 28) in both the dermis and epidermis. […] There were also fewer mononuclear cells 28 in the epidermis 22 as well.

[1] = system: primary response to sheep red blood cells (SRBC); assay: Direct plaque forming cell (PFC) assay, primary response to sheep red blood cells (Experiment 6); assay type: in vivo, C57BL/6J mice
Procedure: A control group received only the buffer vehicle (carbonate buffer, 0.01M, pH 9.5). Six hours after the first dose, the mice received 0.1 ml of a 20% SRBC solution intraperitoneally. The mice were sacrificed four days later. The spleens were harvested, and the spleen cells were tested in a modified Cunningham plaque assay. Cunningham, A. V., Nature (London) 207:1106 1965.

[2] = system: Human polymorphonuclear leukocytes (PMNs); assay: LTB4 release by polymorphonuclear leukocytes (Experiment 10); assay type: cell-based; settings: normal human PMNs
From the text: Human polymorphonuclear leukocytes (PMNs) were used to study LTB4 release, which is known to be involved in inflammation.

white cells = settings: in vivo
Human macrophages = assay: 3H-thymidine incorporation, LPS-stimulated macrophages (Experiment 17); assay type: cell-based; settings: concentrations as high as 10^-5 M/L
Procedure: Human macrophages were stimulated using LPS in vitro, and ^3 H-thymidine incorporation was measured.

[3] = system: thymocytes from normal mice; assay: Con A stimulated 3H-thymidine incorporation, thymocytes from normal mice in vitro (Experiment 18); assay type: cell-based; settings: concentrations as high as 10^-5 M/L
[4] = system: ear swelling produced by topical application of arachidonic acid; assay: Ear swelling produced by topical arachidonic acid (Experiment 22); assay type: in vivo, mice
[5] = 11 mg/kg orally daily, four days after SRBC

Compound: O=C1NC(=O)[C@@]2(CCOc3ccc(F)cc32)N1 [Sorbinil, 4(S)-2,3-dihydro-6-fluorospiro-(4H-1-benzopyran-4,4'-imidazolidine)-2',5'-dione]
- Edema of dermal compartment (DTH reaction in ears; primed mouse challenged 24 hours previously with DNFB, vs buffer-treated): much less edematous
- Mononuclear cell infiltration in challenged ears (DTH reaction in ears; sorbinil-treated vs challenged control mice): infiltration was reduced
- Direct plaques [1, 5]: 372±62 plaques per 2×10^5 cells
- Increase in spleen cellularity compared to buffer-treated control group [1, 5]: 46%
- Increase in the number of direct plaques (IgM antibody secreting cells) compared to buffer control [1, 5]: 94%
- PFC on a per spleen basis [1, 5]: 393,000±12,617 PFC/spleen
- Spleen cellularity [1, 5]: 2.12±0.26×10^8 cells/spleen
- Qualitative appearance of plaques ([1]; spleen cells from sorbinil-treated mice vs buffer control): much smaller, more irregularly shaped, and less distinct
- Production of LTB4 [2]: no effect
- White cell population (differential blood count) (white cells): did not affect the population of white cells
- Incorporation of 3H-thymidine (Human macrophages): no effect
- 3H-thymidine incorporation stimulated by Con A [3]: no effect
- Ear swelling produced by topical arachidonic acid ([4]; oral administration): no effect
- Ear swelling produced by topical arachidonic acid ([4]; topical administration): no effect
